Laboratory results published in publication PMC7377239, “Cardiovascular Effects of Polychlorinated Biphenyls and Their Major Metabolites” (Environmental Health Perspectives, 2020).
Read-outs that look alike come from different tables or passages of the source.

What was measured:
[1] = tested on: iCell endothelial cells (human iPSC-derived ECs); assay: High-content imaging cytotoxicity in iCell endothelial cells, 24 h; assay type: cell-based; settings: Homo sapiens, Endothelial cell; for viability at 0.1 µM / activity at 0.1 µM: 0.10 µM
In short: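 Readouts were vehicle-normalised and fitted to a four-parameter logistic model. POD was set at one SD beyond 0.5% DMSO control means, and 100 µM was assigned when no response was seen. Cells were monolayers of iCell endothelial cells imaged after 24 h compound exposure using nuclear, mitochondrial and calcein dyes.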

[2] = tested on: iCell endothelial cells (human iPSC-derived ECs); assay: Tube formation (tubulogenesis) assay in iCell endothelial cells, 18 h; assay type: cell-based
In short: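 Tube formation was measured by calcein AM imaging after overnight compound exposure (37°C, 0.5% DMSO vehicle) of human iPSC-derived ECs, 7,500/well, on reduced-growth-factor Geltrex in starvation medium. Vehicle-normalized data fitted to four-parameter logistic; POD set at one vehicle SD; without response, 100 μM taken as NOAEL.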

[3] = iPSC-EC, 0.00 µM = 100.00, read-out: endo.cyto.24hr
[4] = iPSC-EC, 0.00 µM = 100.00, read-out: endo.mito.24hr
[5] = iPSC-EC, 0.00 µM = 100.00, read-out: endo.mitoint.24hr
[6] = iPSC-EC, 0.00 µM = 100.00, read-out: endo.nma.24hr
[7] = iPSC-EC, 0.00 µM = 100.00, read-out: endo.tc.24hrs
[8] = iPSC-EC, 0.10 µM, 0.00 µM = 100.00
[9] = iPSC-EC, 10.00 µM, 0.00 µM = 100.00
[10] = iPSC-EC, 100.00 µM, 0.00 µM = 100.00

In the case of `Clc1ccc(Cl)c(-c2c(Cl)ccc(Cl)c2Cl)c1Cl` [(+)-PCB 136, 2,2′,3,3′,6,6′-hexachlorobiphenyl], the minimal effective concentration ([1]; endothelial cells (endo), nma, 24 hr, read-out: POD endo.nma.24hr) is reported as 100 µM, the viability at 0.01 µM [1, 3] is reported as 103% and the activity at 0.01 µM [1, 4] is reported as 103%. The activity at 0.01 µM [1, 5] was 96.4%, the activity at 0.01 µM [1, 6] was 102% and the viability at 0.01 µM [1, 7] was 103%. The viability at 0.1 µM [1, 3] was 103%, the activity at 0.1 µM [1, 4] was 104% and the activity at 0.1 µM [1, 5] was 95.5%. For the same molecule, the activity at 0.1 µM [1, 6] was 98.7%, the viability at 0.1 µM [1, 7] was 103% and the viability at 1 µM [1, 3] was 103%. For the same molecule, the activity at 1 µM [1, 4] was 103%, the activity at 1 µM [1, 5] was 92.5% and the activity at 1 µM [1, 6] was 98.5%. The viability at 1 µM [1, 7] was 103%, the viability at 10 µM [1, 3] was 101% and the activity at 10 µM [1, 4] was 102%. The activity at 10 µM [1, 5] was 92.2%, the activity at 10 µM [1, 6] was 99.4% and the viability at 10 µM [1, 7] was 101%. It also gave a viability at 100 µM [1, 3] of 46.7%, an activity at 100 µM [1, 4] of 41.6% and an activity at 100 µM [1, 5] of 51.5%. The activity at 100 µM [1, 6] was 104%, the viability at 100 µM [1, 7] was 50.8% and the minimal effective concentration ([1]; iPSC-EC, 100.00 = highest concentration tested, read-out: endo.nma.24hr POD) was 100 µM. It also gave a minimal effective concentration ([2]; Homo sapiens, Endothelial cell, endothelial cells (endo), tube formation mtl, 18 hr, read-out: POD endo.mtl.18hr) of 63.5 µM, an activity at 0.01 µM ([2]; Homo sapiens, Endothelial cell, iPSC-EC, 0.01 µM, 0.00 µM = 100.00, read-out: endo.mtl.18hr) of 115% and an activity at 0.01 µM ([2]; Homo sapiens, Endothelial cell, iPSC-EC, 0.01 µM, 0.00 µM = 100.00, read-out: endo.tta.18hr) of 133%. The activity at 0.01 µM ([2]; Homo sapiens, Endothelial cell, iPSC-EC, 0.01 µM, 0.00 µM = 100.00, read-out: endo.ttl.18hr) was 135%, the activity at 0.1 µM ([2]; Homo sapiens, Endothelial cell, iPSC-EC, 0.10 µM, 0.00 µM = 100.00, read-out: endo.mtl.18hr) was 113% and the activity at 0.1 µM ([2]; Homo sapiens, Endothelial cell, iPSC-EC, 0.10 µM, 0.00 µM = 100.00, read-out: endo.ttl.18hr) was 132%. It also gave an activity at 1 µM ([2]; Homo sapiens, Endothelial cell, iPSC-EC, 1.00 µM, 0.00 µM = 100.00, read-out: endo.mtl.18hr) of 111%, an activity at 1 µM ([2]; Homo sapiens, Endothelial cell, iPSC-EC, 1.00 µM, 0.00 µM = 100.00, read-out: endo.tta.18hr) of 134% and an activity at 1 µM ([2]; Homo sapiens, Endothelial cell, iPSC-EC, 1.00 µM, 0.00 µM = 100.00, read-out: endo.ttl.18hr) of 139%. The activity at 10 µM ([2]; Homo sapiens, Endothelial cell, iPSC-EC, 10.00 µM, 0.00 µM = 100.00, read-out: endo.mtl.18hr) was 107%, the minimal effective concentration ([2]; Homo sapiens, Endothelial cell, iPSC-EC, 100.00 = highest concentration tested, read-out: endo.mtl.18hr POD) was 63.5 µM and the endo.tlps.18hr ([2]; iPSC-EC, 0.01 µM, 0.00 µM = 100.00) was 101.49. The endo.tlps.18hr [2, 8] was 128.16, the endo.tta.18hr [2, 8] was 137.60 and the endo.tlps.18hr ([2]; iPSC-EC, 1.00 µM, 0.00 µM = 100.00) was 103.43. For the same molecule, the endo.tlps.18hr [2, 9] was 157.84, the endo.tta.18hr [2, 9] was 197.38 and the endo.ttl.18hr [2, 9] was 177.54. It also gave an endo.mtl.18hr [2, 10] of 68.39, an endo.tlps.18hr [2, 10] of 43.04 and an endo.tta.18hr [2, 10] of 78.91. It also gave an endo.ttl.18hr [2, 10] of 80.17.
